This is an account of results in patent US9040518B2, “Chemical compounds” (GlaxoSmithKline LLC, priority 2010, dated 2015).

pIC50: −log10 of the molar value. Where a name gives a salt, the structure may show the parent alone.

For this assay, the target named is ileal bile acid cotransporter (iBAT) (Homo sapiens (Human), UniProt Q12908). The assay can be described thus: Human iBAT inhibition: [3H]-taurocholate uptake into HEK293 cells expressing human iBAT. Format: cell-based. To be noted: HEK293 cells transduced with human iBAT Bacmam virus, 90 minutes at ambient temperature, mean of at least 2 datapoints. The protocol:
Method for Determination of Human iBAT Inhibition:
In preparation for measurement of bile acid uptake into cells expressing the ileal bile acid cotransporter (iBAT), HEK293 cells were cultured in DMEM/F12 supplemented with 10% FBS. Twenty four hours prior to running an experiment, cells were harvested when at a confluence of 80-90%. Cells were seeded in poly-d-lysine coated plates at 50,000 cells per well, and human iBAT Bacmam virus was added such that each well contains 3.67×10e6 pfu (73.4pfu/cell). Each assay plate was covered with Breathe Easy Seal and placed in an incubator for 24 hours to allow expression of the transporter.
On the day of the uptake experiment, 10 mM HEPES was added to Hank's Balanced Salt Solution, and the pH was adjusted to 7.4 with TRIS (HBSSH). The assay buffer was prepared by adding […] [^3H]-taurocholate and 10 μM cold taurocholate to room temperature HBSSH. A separate washing buffer was prepared by adding 10 μM cold taurocholate to HBSSH (˜30 ml per assay plate) and placed on ice. Using 100% DMSO, 8 point, 3-fold dilution curves for each test compound was prepared starting at 200 μM. Similarly, an 8 point dose response curve was prepared of the control compound [(3R,5R)-3-butyl-3-ethyl-7,8-bis(methyloxy)-5-phenyl-2,3,4,5-tetrahydro-1,4-benzothiazepine 1,1-dioxide (Brieaddy, L. E. WO9605188, 1996)] starting at 1.8 mM. Drug plates were created by adding 3 μL of each concentration to a v-bottom 96-well plate then diluted 60-fold with 177 μL of assay buffer. Plates were removed from the incubator and allowed to cool to ambient temperature. Media was aspirated, and wells were washed once with 300 μL HBSSH. 50 μL of each dose response curve concentration was added in triplicate by column to the assay plates, reserving column 10 for control (assay buffer+1.67% DMSO) and columns 11 and 12 for the control compound. Plates were incubated at ambient temperature for 90 minutes then the plates were aspirated then washed 1× with 300 μL of wash buffer. 220 μL of Microscint 20 was added to each well, and the plates were sealed. The amount of [^3H]-taurocholate in cell lysate was quantitated using a microplate scintillation counter on the following day.
IC50's can be generated using the formula, y=(Vmax*x^n)/(K^n+x^n).

Sequence of ileal bile acid cotransporter (iBAT) (Q12908 whole entry): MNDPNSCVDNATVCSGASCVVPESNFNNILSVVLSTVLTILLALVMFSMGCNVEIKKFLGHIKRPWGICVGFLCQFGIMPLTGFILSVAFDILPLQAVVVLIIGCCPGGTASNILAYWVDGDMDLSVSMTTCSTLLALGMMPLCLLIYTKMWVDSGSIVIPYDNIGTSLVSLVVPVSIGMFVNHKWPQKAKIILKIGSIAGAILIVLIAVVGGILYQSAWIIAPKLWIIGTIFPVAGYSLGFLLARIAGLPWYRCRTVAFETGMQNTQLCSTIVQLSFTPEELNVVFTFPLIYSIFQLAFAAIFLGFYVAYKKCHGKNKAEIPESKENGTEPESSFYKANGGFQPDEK

Broadly, the pIC50 is the negative decadic logarithm of the IC50, by convention in mol/L. Read a low pIC50 as a high IC50. Consider `CCCC[C@]1(CC)CS(=O)(=O)c2cc(CNCC(=O)O)c(OC)cc2[C@@H](c2ccccc2)N1O` [Example 46, N-{[(3R,5R)-3-butyl-3-ethyl-4-hydroxy-7-(methyloxy)-1,1-dioxido-5-phenyl-2,3,4,5-tetrahydro-1,4-benzothiazepin-8-yl]methyl}glycine], for which the pIC50 is 8.70.
Consider `CCCC[C@]1(CC)CS(=O)(=O)c2cc(CN(O)CC(=O)O)c(OC)cc2[C@@H](c2ccccc2)N1` [Example 48, N-{[(3R,5R)-3-butyl-3-ethyl-7-(methyloxy)-1,1-dioxido-5-phenyl-2,3,4,5-tetrahydro-1,4-benzothiazepin-8-yl]methyl}-N-hydroxyglycine], for which the negative-log IC50 (pIC50) is 7.77.
Consider `CCCC[C@]1(CC)CS(=O)(=O)c2cc(CN(C)CC(=O)O)c(OC)cc2[C@@H](c2ccccc2)N1` [Example 49, N-{[(3R,5R)-3-butyl-3-ethyl-7-(methyloxy)-1,1-dioxido-5-phenyl-2,3,4,5-tetrahydro-1,4-benzothiazepin-8-yl]methyl}-N-methylglycine ammonium salt], for which the pIC50 is 7.39.
Turning to `CCCC[C@]1(CC)CS(=O)(=O)c2cc(CNC(CC(=O)O)CC(=O)O)c(OC)cc2[C@@H](c2ccccc2)N1O` [Example 50, 3-({[(3R,5R)-3-butyl-3-ethyl-4-hydroxy-7-(methyloxy)-1,1-dioxido-5-phenyl-2,3,4,5-tetrahydro-1,4-benzothiazepin-8-yl]methyl}amino)pentanedioic acid trifluoroacetate salt], the pIC50 was 7.29.
`CCCC[C@]1(CC)CS(=O)(=O)c2cc(CCP(=O)(O)O)c(OC)cc2[C@@H](c2ccccc2)N1` [Example 51, {2-[(3R,5R)-3-butyl-3-ethyl-7-(methyloxy)-1,1-dioxido-5-phenyl-2,3,4,5-tetrahydro-1,4-benzothiazepin-8-yl]ethyl}phosphonic acid bis-ammonium salt] had a pIC50 of 7.29.
The same measure for `CCCC[C@]1(CC)CS(=O)(=O)c2cc(CN[C@@H](CO)C(=O)O)c(OC)cc2[C@@H](c2ccccc2)N1` [Example 52, N-{[(3R,5R)-3-butyl-3-ethyl-7-(methyloxy)-1,1-dioxido-5-phenyl-2,3,4,5-tetrahydro-1,4-benzothiazepin-8-yl]methyl}-L-serine bis-ammonium salt]: 7.23; for `CCCC[C@]1(CC)CS(=O)(=O)c2cc(CN[C@@H](CSSC[C@H](N)C(=O)O)C(=O)O)c(OC)cc2[C@@H](c2ccccc2)N1` [Example 53, N-{[(3R,5R)-3-butyl-3-ethyl-7-(methyloxy)-1,1-dioxido-5-phenyl-2,3,4,5-tetrahydro-1,4-benzothiazepin-8-yl]methyl}-L-cystine bis-ammonium salt]: 7.17; for `CCCC[C@]1(CC)CS(=O)(=O)c2cc(CP(=O)(O)O)c(OC)cc2[C@@H](c2ccccc2)N1O` [Example 54, {[(3R,5R)-3-butyl-3-ethyl-4-hydroxy-7-(methyloxy)-1,1-dioxido-5-phenyl-2,3,4,5-tetrahydro-1,4-benzothiazepin-8-yl]methyl}phosphonic acid]: 6.91.
Then `CCCC[C@]1(CC)CS(=O)(=O)c2cc(/C=C/P(=O)(O)O)c(OC)cc2[C@@H](c2ccccc2)N1` [Example 55, {(E)-2-[(3R,5R)-3-butyl-3-ethyl-7-(methyloxy)-1,1-dioxido-5-phenyl-2,3,4,5-tetrahydro-1,4-benzothiazepin-8-yl]ethenyl}phosphonic acid bis-ammonium salt], with 6.88; and `CCCC[C@]1(CC)CS(=O)(=O)c2cc(CN[C@H](C(=O)O)[C@@H](C)O)c(OC)cc2[C@@H](c2ccccc2)N1` [Example 56, N-{[(3R,5R)-3-butyl-3-ethyl-7-(methyloxy)-1,1-dioxido-5-phenyl-2,3,4,5-tetrahydro-1,4-benzothiazepin-8-yl]methyl}-L-threonine ammonium salt], with 6.37.
`CCCC[C@]1(CC)CS(=O)(=O)c2cc(CN3CCC[C@@H]3C(=O)O)c(OC)cc2[C@@H](c2ccccc2)N1` [Example 57, 1-{[(3R,5R)-3-butyl-3-ethyl-7-(methyloxy)-1,1-dioxido-5-phenyl-2,3,4,5-tetrahydro-1,4-benzothiazepin-8-yl]methyl}-D-proline ammonium salt] showed a pIC50 of 6.12.
Consider `CCCC[C@]1(CC)CS(=O)(=O)c2cc(CN[C@@H](CCCCN)C(=O)O)c(OC)cc2[C@@H](c2ccccc2)N1` [Example 58, N^2-{[(3R,5R)-3-butyl-3-ethyl-7-(methyloxy)-1,1-dioxido-5-phenyl-2,3,4,5-tetrahydro-1,4-benzothiazepin-8-yl]methyl}-L-lysine ammonium salt], for which the pIC50 was 5.84.
Then `CCCC[C@]1(CC)CS(=O)(=O)c2cc(CN[C@@H](CCCCN(C)C)C(=O)O)c(OC)cc2[C@@H](c2ccccc2)N1` [Example 59, N^2-{[(3R,5R)-3-butyl-3-ethyl-7-(methyloxy)-1,1-dioxido-5-phenyl-2,3,4,5-tetrahydro-1,4-benzothiazepin-8-yl]methyl}-N^6,N^6-dimethyl-L-lysine ammonium salt], with 5.48.
The same measure for `CCCC[C@]1(CC)CS(=O)(=O)c2cc(CN(CP(=O)(O)O)CP(=O)(O)O)c(OC)cc2[C@@H](c2ccccc2)N1` [Example 60, [({[(3R,5R)-3-butyl-3-ethyl-7-(methyloxy)-1,1-dioxido-5-phenyl-2,3,4,5-tetrahydro-1,4-benzothiazepin-8-yl]methyl}imino)dimethanediyl]bis(phosphonic acid) tetraammonium salt]: 5.48; for `CCCC[C@]1(CC)CS(=O)(=O)c2cc(CN(CP(=O)(O)O)CP(=O)(O)OCC)c(OC)cc2[C@@H](c2ccccc2)N1` [Example 61, [({[(3R,5R)-3-butyl-3-ethyl-7-(methyloxy)-1,1-dioxido-5-phenyl-2,3,4,5-tetrahydro-1,4-benzothiazepin-8-yl]methyl}{[(ethyloxy)(hydroxy)phosphoryl]methyl}amino)methyl]phosphonic acid triammonium salt]: 5.47.
Then `CCCC[C@]1(CC)CS(=O)(=O)c2cc(CNCP(=O)(O)O)c(OC)cc2[C@@H](c2ccccc2)N1` [Example 62, [({[(3R,5R)-3-butyl-3-ethyl-7-(methyloxy)-1,1-dioxido-5-phenyl-2,3,4,5-tetrahydro-1,4-benzothiazepin-8-yl]methyl}amino)methyl]phosphonic acid trifluoroacetate salt], with 5.41; and `CCCC[C@]1(CC)CS(=O)(=O)c2cc(CNC(=O)C(=O)O)c(OC)cc2[C@@H](c2ccccc2)N1` [Example 64, ({[(3R,5R)-3-butyl-3-ethyl-7-(methyloxy)-1,1-dioxido-5-phenyl-2,3,4,5-tetrahydro-1,4-benzothiazepin-8-yl]methyl}amino)(oxo)acetic acid], with 8.22; and `CCCCC1(CCCC)CS(=O)(=O)c2cc(CNC(CC(=O)O)CC(=O)O)c(OC)cc2C(c2ccccc2)N1` (stereo not shown) [Example 65, 3-({[3,3-dibutyl-7-(methyloxy)-1,1-dioxido-5-phenyl-2,3,4,5-tetrahydro-1,4-benzothiazepin-8-yl]methyl}amino)pentanedioic acid trifluoroacetate salt], with 6.47.
Turning to `CCCCC1(CCCC)CS(=O)(=O)c2cc(CNCC(=O)O)c(OC)cc2C(c2ccccc2)N1` (stereo not shown) [Example 66, N-{[3,3-dibutyl-7-(methyloxy)-1,1-dioxido-5-phenyl-2,3,4,5-tetrahydro-1,4-benzothiazepin-8-yl]methyl}glycine trifluoroacetate salt], the pIC50 was 7.68.
The same measure for `CCCCC1(CCCC)CS(=O)(=O)c2cc(CP(=O)(O)O)c(OC)cc2C(c2ccccc2)N1` (stereo not shown) [Example 67, {[3,3-dibutyl-7-(methyloxy)-1,1-dioxido-5-phenyl-2,3,4,5-tetrahydro-1,4-benzothiazepin-8-yl]methyl}phosphonic acid trifluoroacetate salt]: 7.28; for `CCCC[C@]1(CC)CS(=O)(=O)c2cc(CNCC(=O)O)c(N(C)C)cc2[C@@H](c2ccccc2)N1` [Example 68, N-{[(3R,5R)-3-butyl-7-(dimethylamino)-3-ethyl-1,1-dioxido-5-phenyl-2,3,4,5-tetrahydro-1,4-benzothiazepin-8-yl]methyl}glycine trifluoroacetate salt]: 9.00; for `CCCC[C@]1(CC)CS(=O)(=O)c2cc(CNC(CC(=O)O)CC(=O)O)c(N(C)C)cc2[C@@H](c2ccccc2)N1` [Example 69, 3-({[(3R,5R)-3-butyl-7-(dimethylamino)-3-ethyl-1,1-dioxido-5-phenyl-2,3,4,5-tetrahydro-1,4-benzothiazepin-8-yl]methyl}amino)pentanedioic acid bis-ammonium salt]: 7.72.
